Experimental data from US20220362138A1, “Oral Care Compositions and Methods of Use” (Colgate-Palmolive Company, priority 2020, published 2022).

Test system: IL-1 β mediated PGE2 in HEPM monolayer cells
Assay: IL-1β mediated PGE2 suppression, HEPM monolayer cell model
Type: cell-based
Conditions: cells treated with IL-1 β
Source text: IL-1 β Mediated PGE2 Suppression with Gymnema sylvestre Treatment (Cell Model)
PGE2, a marker of inflammation, can be increased via administration of IL-1 β. Samples are subjected to the HEPM monolayer cell model assay. […]

Oc1cc(Cl)ccc1Oc1ccc(Cl)cc1Cl [Triclosan]
PGE2 (0.0005%): 715.9 pg/mL | PGE2 (0.001%): 520.9 pg/mL
